Source: patent EP0155872A1, “Process for reducing the lignin content of plants, and compositions for putting it into use” (priority 1984, dated 1985)
Entries after “also recorded” stand apart in the source; their conditions may differ. Like-named read-outs stand apart in the source and are kept apart here.

Columns and labels:
cultures de tabac = settings: prior art; cited from earlier work
CAD de peuplier = target: T1, CAD de peuplier (Populus deltoides, UniProt P31657); test: In vitro inhibition of isolated poplar cinnamyl alcohol dehydrogenase (CAD) at 2 mM; type: biochemical; settings: for inhibition at 2000 µM / Inhibition à 2mM %: 2mM, CAD de peuplier; for inhibition at 2000 µM: read-out: Inhibition à 2mM %
T1 construct: CAD de peuplier isolée selon la méthode deSARNI et al,1984; from tissue; host or cells: poplar plant material
T1 sequence (P31657 1-357): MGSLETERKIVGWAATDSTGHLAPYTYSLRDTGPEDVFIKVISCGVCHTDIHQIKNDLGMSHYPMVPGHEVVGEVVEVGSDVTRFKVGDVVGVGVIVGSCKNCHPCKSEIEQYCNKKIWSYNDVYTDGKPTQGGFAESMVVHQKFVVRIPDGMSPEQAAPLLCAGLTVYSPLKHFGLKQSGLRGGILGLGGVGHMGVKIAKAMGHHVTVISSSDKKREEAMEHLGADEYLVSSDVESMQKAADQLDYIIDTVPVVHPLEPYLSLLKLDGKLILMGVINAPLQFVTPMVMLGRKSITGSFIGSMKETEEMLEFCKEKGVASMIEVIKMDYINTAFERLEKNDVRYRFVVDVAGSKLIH
Excerpt: Après réacidification à pH2 par de l'acide chlorhydrique 3N et centrifugation, le surnageant contenant les acides cinnamiques est séparé du résidu. Les "poudres alcool-benzène" ainsi hydrolysées sont lavées par de l'eau distillée jusqu'à pH neutre et séchées, sous vide dans un dessiccateur en présence de silica.-gel. Les teneurs en lignines sont estimées par la méthode gravimétriques de KLASON (Tappi Standard method Tl2m) modifiée par EFFLAND. Tappi, 60, p 143-144, 1977. On rapporte dans le tableau 1) suivant les résultats obtenus concernant l'effet mesuré in vitro d'inhibiteurs selon l'invention à une concentration de 2mM vis-à-vis de la CAD de peuplier isolée selon la méthode deSARNI et al,1984,EUROP JOURNAL OF BIOCHEMISTRY, 18(1),139, 259-265 On indique également dans ce tableau les résultats obtenus avec des composés portant des substitutions différentes de ceux mis enoe uvre dans l'invention. Les chiffres indiqués entre parenthèses a côté des formules correspondent aux composés identifiés dans les exemples de préparation 2 et 3.
On rapporte dans le tableau 2 suivant les pourcentages d'inhibition de la CAD obtenus en utilisant, à raison de 2 mM, différents composés capables de complexer Zn.

CAD = target: T2, CAD (Populus deltoides, UniProt P31657); test: In vitro CAD activity with nitro derivatives, physiological direction (aldehyde reduction, NADPH oxidation at 340 nm); type: biochemical; settings: read-out: % d'inhibition (activité CAD); for inhibition at 230 µM: Concentration finale dans le milieu 0,230 mM; for inhibition at 375 µM: Concentration finale dans le milieu 0,375 mM
T2 sequence (P31657 1-357): T1 sequence (P31657 1-357)
Excerpt: η) Effets des dérivés nitrés sur l'activité CAD "in vitro". Concentration finale % d'inhibition
Les mesures ont été réalisées dans le sens physiologique (aldéhyde alcool), c'est-à-dire en suivant la réduction de l'aldéhyde (oxydation du NADPH mesurée à 340 nm).(Les tests sont plus sensibles et plus proches du milieu "in vivo".

For NOC(Cc1ccccc1)C(=O)O (racemic) [acide D,L-α-aminoxy-β -phényl-propionique], the “réduction des phénols totaux” value (cultures de tabac) is given as about 30%.

For O=C(O)CSCC(=O)c1ccccc1 [Acide oxo-5-phényl-5-thia-3, reference compound], the inhibition at 2000 µM (CAD de peuplier) was 40%.

Work on O=C(O)CS(=O)(=O)Nc1ccccc1 [NPS, N-(phényl) sulfamoyle] yielded an inhibition at 2000 µM (CAD de peuplier) of 45%.

For CC(C)[S+]([O-])Nc1ccccc1 (stereo not shown) [NPSP, N-(phényl) sulfinamoyl d'isopropyle, reference compound], the “inhibition de l'activité CAD (in words)” value (CAD de peuplier) was “inefficaces; also recorded: n'inhibent pas” and the inhibition at 2000 µM (CAD de peuplier) was 0%.

CC(C)(C)OC(=O)CC(=O)Nc1ccccc1 [PCAD, Phényl(carbamoyl) acétate de tertiobutyle, reference compound] gave an inhibition at 2000 µM (CAD de peuplier) of 0%.

CC(C)(C)OC(=O)C[S+]([O-])Nc1ccccc1 (stereo not shown) [composé 1, N-(phényl)sulfinamoyl acétate de tertiobutyle] showed an inhibition at 2000 µM (CAD de peuplier) of 50%.

For CC(C)(C)OC(=O)CS(=O)(=O)Nc1ccccc1 [composé 7a, N-(phényl)sulfamoyl acétate de tertiobutyle], the inhibition at 2000 µM (CAD de peuplier) was 50%.

For CC(C)(C)OC(=O)CS(=O)(=O)NC1CCCCC1 [compound 14, N-(Cyclohexyl)sulfamoyl acétate de tertiobutyle], the inhibition at 2000 µM (CAD de peuplier) was 0%.

In the case of CC(C)(C)OC(=O)C(C)(C)[S+]([O-])Nc1ccccc1 (stereo not shown) [compound 15, N-(Phényl)sulfinamoyl isobutyrate de tertiobutyle], the inhibition at 2000 µM (CAD de peuplier) is reported as 0% and the “inhibition de l'activité CAD (in words)” value (CAD de peuplier; listed as NPSI) is reported as “inefficaces; also recorded: n'inhibent pas”.

For CC(C)(C)OC(=O)C[S+]([O-])NC1CCCCC1 (stereo not shown) [compound 17, N-(Cyclohexyl)sulfinamoyl acétate de tertiobutyle], the inhibition at 2000 µM (CAD de peuplier) was 0%.

Compound CC(C)(C)OC(=O)C[S+]([O-])Nc1ccc([N+](=O)[O-])cc1O (stereo not shown) [nitro OH PAS] has an inhibition at 230 µM (CAD) of 5%, an inhibition at 375 µM (CAD) of 41% and an inhibition at 500 µM (CAD; Concentration finale dans le milieu 0,500 mM) of 100%.

CC(C)(C)OC(=O)C[S+]([O-])Nc1ccc([N+](=O)[O-])cc1 (stereo not shown) [nitro PAS] showed an inhibition at 125 µM (CAD; Concentration finale dans le milieu 0,125 mM) of 14%, an inhibition at 188 µM (CAD; Concentration finale dans le milieu 0,188 mM) of 28% and an inhibition at 230 µM (CAD) of 68%. It also gave an inhibition at 375 µM (CAD) of 100%.

In the case of “(Hydroxy-4-methoxy-3-phényl)-3-Hydroxy-3-propanethiate de 5-phényle [HMHP, reference compound]”, the “Inhibition à 2mM %” value (CAD de peuplier) is reported as 40%.

With “N-(Thiazolyl-2) Sulfanilamide [NTS, reference compound]” the “Inhibition à 2mM %” value (CAD de peuplier) was 55%.

In the case of “N-tert-butyl-methoxy-2 (Iminomethyl) - 4 phénol [BIP, reference compound]”, the “Inhibition à 2mM %” value (CAD de peuplier) is reported as 50%.
